Laboratory results reported in US4052455A, “Styrylamidines” (Mead Johnson & Company, priority 1975, dated 1977).
Where a name gives a salt, the structure may show the parent alone. Blank lines part the entries; values can stand above or below the compound they belong to.

Experiments:
[1] = test system: platelet aggregation; assay: Born/O'Brien nephelometric platelet aggregation test in platelet rich plasma (ADP or collagen induced); format: cell-based; conditions: human or rabbit platelet rich plasma, 50% or more reduction, read-out: Concentration at which collagen or adenosine diphosphate induced platelet aggregation is reduced by 50% or more
Experimental: (§1) Measurement of the antithrombogenic activity of the compounds of Formula I is carried out by standard pharmacological tests essentially described by Born, Nature, 194, 927 (1962) and O'Brien, J. Clin. Path., 15, 446 (1962). This test comprises a nephelometric method is which the change in turbidity of a specimen of platelet rich plasma (human or rabbit) is measured on causation of platelet aggregation by addition of a thrombogenic inducing agent such as adenosine diphosphate or collagen. The compounds of the present invention are effective antithrombogenic agents according to this test at concentrations in the order of about 0.5 to 90 mcg./0.5 ml. platelet rich plasma. In the intact animal, the antithrombogenic effect is readily observed by applying the above test to blood samples withdrawn prior to and after administration of a compound of the present invention.

[2] = test system: blood pressure; assay: Blood pressure and heart rate in anesthetized normotensive dog; format: in vivo
Experimental: (§2) For instance, at 1.0 mg./kg. body weight, this compound provides a 33% reduction in blood pressure while at 10.0 mg./kg. body weight, a 64% reduction in blood pressure is obtained. In the same test procedure, the prior art cinnamylamidine, N-(4-chlorocinnamyl)acetamidine, provided a 12% increase in blood pressure with a 6% decrease in heart rate at a dose of 1.0 mg./kg. body weight. At a dose of 10.0 mg./kg. body weight, the prior art cinnamylamidine provides an increase of 26% in blood pressure.

[3] = test system: mouse electroshock; assay: Mouse electroshock test of Swinyard (anticonvulsant); format: in vivo; conditions: oral
Text: Aside from antithrombogenic and analgesic effects, compounds of Formula I wherein R1 and R2 substituents are halogen (particularly chlorine), R3 is hydrogen or methyl and A is selected from the group consisting of lower alkyl of from 1 to 8 carbon atoms inclusive or cycloalkyl of from 3 to 6 carbon atoms inclusive, are useful as anticonvulsant, hypotensive and antihypertensive agents. […] For example, N-(2,6-dichlorostyryl)acetamidine in the mouse electroshock test of E. A. Swinyard, J. Amer. Pharm.

[4] = test system: urine output; assay: Lipschitz diuretic test; format: in vivo; conditions: oral; 12.5 mg./kg. body weight
Text: N-(2,6-dichlorostyryl)acetamidine is orally effective as a diuretic agent according to the W. L. Lipschitz, et al., J. Pharmacol. Expt.

[5] = test system: blood pressure; assay: Blood pressure in spontaneous hypertensive rat; format: in vivo; conditions: oral 5 to 50.0 mg./kg.
Experimental: as §2

[6] = test system: blood platelet aggregation; assay: Oral administration to rabbits; inhibition of blood platelet aggregation induced by ADP or collagen in platelet rich plasma (Example 56); format: in vivo; conditions: rabbit, oral single dose 25 mg./kg.; for % Inhibition of Blood Platelet Aggregation Induced by ADP: ADP 0.25-1.0 microgram; for % Inhibition of Blood Platelet Aggregation Induced by Collagen: lowest amount of collagen giving maximal aggregation
Experimental: as §1
The styrylamidine is orally administered to each rabbit in a group of 2-6 rabbits at a single dose of 25 mg./kg. body weight. A 8 ml. portion of blood is drawn just prior to dosing in order to obtain a control value and at various time periods thereafter. Platelet rich plasma is prepared from each blood sample by centrifugation at 200 times gravity for 10 min. at room temperature. Samples (0.5 ml.) of platelet rich plasma are tested for their ability to aggregate with either collagen or adenosine-5'-diphosphate added as specified in the modification of Born and O'Brien method which has been fully described hereinbefore. The results shown below indicate the inhibition of blood platelet aggregation induced by the lowest amount of collagen giving maximal aggregation or 0.25-1.0 microgram adenosine-5'-diphosphate for representative amidines.

[7] = test system: phenylquinone writhing syndrome; assay: Phenylquinone writhing test (analgesic activity); format: in vivo; conditions: mice
Experimental: In this test, groups of 10-20 mice are injected subcutaneously or orally with different doses of the test compound. At predetermined time intervals, the mice receive 2.5 mg./kg. phenylquinone intraperitoneally. The total number of writhing episodes is counted for each mouse for 10 min. and the average percent decrease in writhing recorded for each dose.
The novel styrylsulfonylamidines of Formula V in addition to being useful as precursors to the styrylamidine products of Formula I have analgesic utility as measured in the foregoing phenylquinone writhing test. A preferred class of styrylsulfonylamidines of Formula V having particularly significant analgesic activity are those wherein R1 and R2 are each hydrogen, nitro or halogen and A is phenyl or lower alkyl of from 1 to 8 carbon atoms inclusive. Analgesic activity at the time interval indicated following administration of compounds representative of this class are given in Table I below.

[8] = subcutaneous 6 mg./kg., time interval 30 min.

Structure (SMILES): N=C(N/C=C/c1ccc(N)cc1)c1ccc(N)cc1 [4-AMINO-N-(4-AMINOSTYRYL)BENZAMIDINE TRIHYDROCHLORIDE]
IC50 [1]: < 30 µg/mL

Structure (SMILES): CC(=N)N/C=C/c1c(Cl)cccc1Cl [N-(2,6-dichlorostyryl)acetamidine]
Reduction in blood pressure ([2]; intravenous 1.0 mg./kg.): 33%
Reduction in blood pressure ([2]; intravenous 10.0 mg./kg.): 64%
Reduction in blood pressure ([2]; intravenous 0.01 to 10 mg./kg.): dose related reduction in blood pressure
ED50 [3]: 44 mg/kg
Urine output [4]: doubled the urine output
Reduction of blood pressure [5]: substantial reduction of blood pressure

Structure (SMILES): CC(C)(C)C(=N)N/C=C/c1ccc(Cl)c(Cl)c1 [N-(3,4-DICHLOROSTYRYL)-2,2-DIMETHYLPROPIONAMIDINE]
% Inhibition of Blood Platelet Aggregation Induced by ADP ([6]; 1 hr.): 60%
% Inhibition of Blood Platelet Aggregation Induced by ADP ([6]; 2 hrs.): 25%
% Inhibition of Blood Platelet Aggregation Induced by ADP ([6]; 4 hrs.): 67%
% Inhibition of Blood Platelet Aggregation Induced by ADP ([6]; 6 hrs.): 87%
% Inhibition of Blood Platelet Aggregation Induced by ADP ([6]; 24 hrs.): 0%
% Inhibition of Blood Platelet Aggregation Induced by Collagen ([6]; 1 hr.): 78%
% Inhibition of Blood Platelet Aggregation Induced by Collagen ([6]; 2 hrs.): 80%
% Inhibition of Blood Platelet Aggregation Induced by Collagen ([6]; 4 hrs.): 95%
% Inhibition of Blood Platelet Aggregation Induced by Collagen ([6]; 6 hrs.): 95%
% Inhibition of Blood Platelet Aggregation Induced by Collagen ([6]; 24 hrs.): 0%

Structure (SMILES): N=C(N/C=C/c1ccc(Cl)c(Cl)c1)c1ccccc1 [N-(3,4-DICHLOROSTYRYL)BENZAMIDINE HYDROCHLORIDE]
% Inhibition of Blood Platelet Aggregation Induced by ADP ([6]; 0.5 hrs.): 61%
% Inhibition of Blood Platelet Aggregation Induced by ADP ([6]; 2 hrs.): 54%
% Inhibition of Blood Platelet Aggregation Induced by ADP ([6]; 4 hrs.): 30%
% Inhibition of Blood Platelet Aggregation Induced by ADP ([6]; 6 hrs.): 22%
% Inhibition of Blood Platelet Aggregation Induced by ADP ([6]; 24 hrs.): 0%
% Inhibition of Blood Platelet Aggregation Induced by Collagen ([6]; 0.5 hrs.): 73%
% Inhibition of Blood Platelet Aggregation Induced by Collagen ([6]; 2 hrs.): 65%
% Inhibition of Blood Platelet Aggregation Induced by Collagen ([6]; 4 hrs.): 26%
% Inhibition of Blood Platelet Aggregation Induced by Collagen ([6]; 6 hrs.): 3%
% Inhibition of Blood Platelet Aggregation Induced by Collagen ([6]; 24 hrs.): 0%

Structure (SMILES): CCCC(=N)N/C=C/c1ccc(Cl)c(Cl)c1 [N-(3,4-DICHLOROSTYRYL)BUTYRAMIDINE HYDROCHLORIDE]
% Inhibition of Blood Platelet Aggregation Induced by ADP ([6]; 1 hr.): 18%
% Inhibition of Blood Platelet Aggregation Induced by ADP ([6]; 2 hrs.): 67%
% Inhibition of Blood Platelet Aggregation Induced by ADP ([6]; 4 hrs.): 37%
% Inhibition of Blood Platelet Aggregation Induced by ADP ([6]; 6 hrs.): 30%
% Inhibition of Blood Platelet Aggregation Induced by ADP ([6]; 24 hrs.): 0%
% Inhibition of Blood Platelet Aggregation Induced by Collagen ([6]; 1 hr.): 30%
% Inhibition of Blood Platelet Aggregation Induced by Collagen ([6]; 2 hrs.): 92%
% Inhibition of Blood Platelet Aggregation Induced by Collagen ([6]; 4 hrs.): 32%
% Inhibition of Blood Platelet Aggregation Induced by Collagen ([6]; 6 hrs.): 45%
% Inhibition of Blood Platelet Aggregation Induced by Collagen ([6]; 24 hrs.): 0%

Structure (SMILES): N=C(N/C=C/c1ccc(Cl)c(Cl)c1)C1CC1 [N-(3,4-DICHLOROSTYRYL)CYCLOPROPANECARBOXAMIDINE HYDROCHLORIDE]
% Inhibition of Blood Platelet Aggregation Induced by ADP ([6]; 1 hr.): 60%
% Inhibition of Blood Platelet Aggregation Induced by ADP ([6]; 2 hrs.): 55%
% Inhibition of Blood Platelet Aggregation Induced by ADP ([6]; 4 hrs.): 90%
% Inhibition of Blood Platelet Aggregation Induced by ADP ([6]; 6 hrs.): 75%
% Inhibition of Blood Platelet Aggregation Induced by ADP ([6]; 24 hrs.): 5%
% Inhibition of Blood Platelet Aggregation Induced by Collagen ([6]; 1 hr.): 65%
% Inhibition of Blood Platelet Aggregation Induced by Collagen ([6]; 2 hrs.): 85%
% Inhibition of Blood Platelet Aggregation Induced by Collagen ([6]; 4 hrs.): 97%
% Inhibition of Blood Platelet Aggregation Induced by Collagen ([6]; 6 hrs.): 87%
% Inhibition of Blood Platelet Aggregation Induced by Collagen ([6]; 24 hrs.): 15%

Structure (SMILES): CC(=N)NS(=O)(=O)C=Cc1ccc([N+](=O)[O-])cc1 [N-(4-nitrostyrylsulfonyl)-acetamidine, N-(4-NITROSTYRYLSULFONYL)ACETAMIDINE]
Analgesic activity, Percent Inhibition ([7]; subcutaneous 6 mg./kg., time interval 60 min.): 36%

Structure (SMILES): CC(=N)NS(=O)(=O)C=Cc1ccccc1 [N-(styrylsulfonyl)acetamidine, N-(STYRYLSULFONYL)ACETAMIDINE]
Analgesic activity, Percent Inhibition ([7]; subcutaneous 6 mg./kg., time interval 15 min.): 38%

Structure (SMILES): N=C(NS(=O)(=O)C=Cc1ccccc1)c1ccccc1 [N-(styrylsulfonyl)benzamidine, N-(STYRYLSULFONYL)BENZAMIDINE]
Analgesic activity, Percent Inhibition ([7]; oral 100 mg./kg., time interval 60 min.): 26%
Analgesic activity, Percent Inhibition [7, 8]: 36%

Structure (SMILES): CC(=N)NS(=O)(=O)C=Cc1ccc(Cl)c(Cl)c1 [N-[(3,4-DICHLOROSTYRYL)SULFONYL]ACETAMIDINE]
Analgesic activity, Percent Inhibition ([7]; oral 100 mg./kg., time interval 120 min.): 36%
Analgesic activity, Percent Inhibition [7, 8]: 28%

Now from value to compound, other results behind:

IC50 [1]: < 30 µg/mL
Structure (SMILES): N=C(N/C=C/c1ccc([N+](=O)[O-])cc1)c1cc(N)cc(N)c1 [3,5-DIAMINO-N-(4-NITROSTYRYL)-BENZAMIDINE TRIHYDROCHLORIDE]

IC50 [1]: < 30 µg/mL
Structure (SMILES): N=C(N/C=C/c1ccc(N)cc1)c1cccc(N)c1 [3-AMINO-N-(4-AMINOSTYRYL)BENZAMIDINE TRIHYDROCHLORIDE MONOHYDRATE]

IC50 [1]: < 30 µg/mL
Structure (SMILES): CN(C)c1ccc(C(=N)N/C=C/c2ccc([N+](=O)[O-])cc2)cc1 [4-(DIMETHYLAMINO)-N-(4-NITROSTYRYL)-BENZAMIDINE ISETHIONATE]

IC50 [1]: < 30 µg/mL
Structure (SMILES): N=C(N/C=C/c1ccc([N+](=O)[O-])cc1)c1ccc(N)cc1 [4-AMINO-N-(4-NITROSTYRYL)BENZAMIDINE HYDROCHLORIDE]

IC50 [1]: < 30 µg/mL
Structure (SMILES): N=C(N/C=C/c1ccccc1N)c1ccccc1 [N-(2-AMINOSTYRYL)BENZAMIDINE DIHYDROCHLORIDE]

IC50 [1]: < 30 µg/mL
Structure (SMILES): CC(=N)N/C=C/c1ccc(Cl)c(Cl)c1 [N-(3,4-DICHLOROSTYRYL)ACETAMIDINE HYDROCHLORIDE]
% Inhibition of Blood Platelet Aggregation Induced by ADP ([6]; 1 hr.): 50%
% Inhibition of Blood Platelet Aggregation Induced by ADP ([6]; 2 hrs.): 52%
% Inhibition of Blood Platelet Aggregation Induced by ADP ([6]; 4 hrs.): 67%
% Inhibition of Blood Platelet Aggregation Induced by ADP ([6]; 6 hrs.): 55%
% Inhibition of Blood Platelet Aggregation Induced by ADP ([6]; 24 hrs.): 0%
% Inhibition of Blood Platelet Aggregation Induced by Collagen ([6]; 1 hr.): 67%
% Inhibition of Blood Platelet Aggregation Induced by Collagen ([6]; 2 hrs.): 50%
% Inhibition of Blood Platelet Aggregation Induced by Collagen ([6]; 4 hrs.): 85%
% Inhibition of Blood Platelet Aggregation Induced by Collagen ([6]; 6 hrs.): 55%
% Inhibition of Blood Platelet Aggregation Induced by Collagen ([6]; 24 hrs.): 0%

IC50 [1]: < 30 µg/mL
Structure (SMILES): N=C(N/C=C/c1ccc(Cl)c(Cl)c1)C1CC1 [N-(3,4-dichlorostyryl)cyclopropanecarboxamidine]

IC50 [1]: < 30 µg/mL
Structure (SMILES): CC(=N)N/C=C/c1ccc(C2CCCCC2)c(Br)c1 [N-(3-BROMO-4-CYCLOHEXYLSTYRYL)ACETAMIDINE HYDROCHLORIDE]

IC50 [1]: < 30 µg/mL
Structure (SMILES): CC(=O)Nc1ccc(/C=C/NC(=N)c2ccccc2)cc1 [N-(4-ACETAMIDOSTYRYL)BENZAMIDINE HYDROCHLORIDE]

IC50 [1]: < 30 µg/mL
Structure (SMILES): N=C(N/C=C/c1ccc(N)cc1)c1ccccc1 [N-(4-AMINOSTYRYL)BENZAMIDINE DIHYDROCHLORIDE]

IC50 [1]: < 30 µg/mL
Structure (SMILES): N=C(N/C=C/c1ccccc1)c1ccccc1 [N-styrylbenzamidine hydrochloride, N-STYRYLBENZAMIDINE HYDROCHLORIDE]
